PubChem BioAssay (NCI)
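96-well plates; 48 h exposure; 5 concentrations. Endpoints by linear interpolation between flanking doses. Not reached: highest tested concentration assigned. GI50 = concentration required for 50% inhibition of growth. TGI marks complete inhibition of growth.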

Columns and labels:
Assay in all cases: DTP human tumour cell line panel, 48 h
M19-MEL melanoma = tested on: M19-MEL melanoma
KM20L2 colon = tested on: KM20L2 colon
SNB-78 CNS = tested on: SNB-78 CNS
DMS 114 small cell lung = tested on: DMS 114 small cell lung
DMS 273 small cell lung = tested on: DMS 273 small cell lung
DU-145 prostate = tested on: DU-145 prostate
MCF7 breast = tested on: MCF7 breast
HS 578T breast = tested on: HS 578T breast
NCI/ADR-RES ovarian = tested on: NCI/ADR-RES ovarian
T-47D breast = tested on: T-47D breast
BT-549 breast = tested on: BT-549 breast
XF 498 CNS = tested on: XF 498 CNS
HOP-18 NSCLC = tested on: HOP-18 NSCLC

O=c1[nH]c2c(c3ccccc13)CCc1ccccc1-2
TGI (M19-MEL melanoma): > 100 µM | TGI (KM20L2 colon): > 100 µM | TGI (SNB-78 CNS): > 100 µM | TGI (DMS 114 small cell lung): > 100 µM | TGI (DMS 273 small cell lung): > 100 µM

c1ccc(/C(=N\Nc2ccc3ccccc3n2)c2ccccn2)cc1
GI50 (DU-145 prostate): 0.881 µM | TGI (DU-145 prostate): 16.8 µM | GI50 (MCF7 breast): 0.907 µM | TGI (MCF7 breast): 11.5 µM | GI50 (HS 578T breast): 4.42 µM | TGI (HS 578T breast): 41.6 µM | GI50 (NCI/ADR-RES ovarian): 0.387 µM | TGI (NCI/ADR-RES ovarian): 14.2 µM | GI50 (T-47D breast): 0.315 µM | TGI (T-47D breast): 26 µM | GI50 (BT-549 breast): 0.116 µM | TGI (BT-549 breast): 1.72 µM

O=CN1N=C(c2ccc(Nc3ccnc4cc(Cl)ccc34)cc2)CC1c1ccc(Cl)cc1 (stereo unspecified)
GI50 (DU-145 prostate): 1.94 µM | TGI (DU-145 prostate): > 100 µM | GI50 (MCF7 breast): 0.48 µM | TGI (MCF7 breast): > 100 µM | GI50 (HS 578T breast): 3.93 µM | TGI (HS 578T breast): > 100 µM | GI50 (NCI/ADR-RES ovarian): 0.359 µM | TGI (NCI/ADR-RES ovarian): > 100 µM | GI50 (T-47D breast): 1.56 µM | TGI (T-47D breast): > 100 µM | GI50 (BT-549 breast): 4.77 µM | TGI (BT-549 breast): > 100 µM

CN(C)CC1=Nc2cccc3cccc(c23)N1
TGI (DU-145 prostate): 30.9 µM | TGI (MCF7 breast): 30.8 µM | TGI (HS 578T breast): > 100 µM | TGI (NCI/ADR-RES ovarian): > 100 µM | TGI (T-47D breast): 24.6 µM | TGI (BT-549 breast): 31.5 µM

COc1ccc2c(c1OC)C(=O)O[C@@H]2[C@H]1c2c(c(Br)c3c(c2OC)OCO3)CCN1C
GI50 (DU-145 prostate): > 100 µM | TGI (DU-145 prostate): > 100 µM | GI50 (MCF7 breast): 4.18 µM | TGI (MCF7 breast): > 100 µM | GI50 (HS 578T breast): 31.4 µM | TGI (HS 578T breast): > 100 µM | GI50 (NCI/ADR-RES ovarian): 9.22 µM | TGI (NCI/ADR-RES ovarian): > 100 µM | GI50 (T-47D breast): 80.5 µM | TGI (T-47D breast): > 100 µM | GI50 (BT-549 breast): > 100 µM | TGI (BT-549 breast): > 100 µM

CNC(=O)c1cncc(/C=C/c2c(Cl)cccc2Cl)c1
GI50 (DU-145 prostate): > 25 µM | TGI (DU-145 prostate): > 25 µM | GI50 (MCF7 breast): > 25 µM | TGI (MCF7 breast): > 25 µM | GI50 (HS 578T breast): 7.17 µM | TGI (HS 578T breast): > 21.6 µM | GI50 (NCI/ADR-RES ovarian): > 21.2 µM | TGI (NCI/ADR-RES ovarian): > 25 µM | GI50 (T-47D breast): > 18.1 µM | TGI (T-47D breast): > 25 µM | GI50 (BT-549 breast): > 25 µM | TGI (BT-549 breast): > 25 µM

O=c1cc(-c2ccc(O)cc2)oc2cc(O)cc(O)c12
TGI (M19-MEL melanoma): > 100 µM | TGI (KM20L2 colon): 88.2 µM | TGI (SNB-78 CNS): 39.5 µM | TGI (XF 498 CNS): 61.6 µM | TGI (DMS 114 small cell lung): > 100 µM | TGI (DMS 273 small cell lung): 40.2 µM

Cc1cc(Cl)ccc1Nc1nc(C(F)(F)F)ccc1C(=O)Nc1cccc(C(F)(F)F)c1
GI50 (DU-145 prostate): 3.17 µM | TGI (DU-145 prostate): 15.6 µM | GI50 (MCF7 breast): 2.28 µM | TGI (MCF7 breast): 7.71 µM | GI50 (HS 578T breast): 3.95 µM | TGI (HS 578T breast): 20.2 µM | GI50 (NCI/ADR-RES ovarian): 3.38 µM | TGI (NCI/ADR-RES ovarian): 14.7 µM | GI50 (T-47D breast): 4.53 µM | TGI (T-47D breast): 23.8 µM | GI50 (BT-549 breast): 3.76 µM | TGI (BT-549 breast): 15.7 µM

CCc1nc(N)nc(N)c1C#CC(C)c1cc(-c2ccnc(C)c2)c2oc(C)nc2c1 (stereo unspecified)
GI50 (DU-145 prostate): < 0.01 µM | TGI (DU-145 prostate): 7.9 µM | GI50 (MCF7 breast): 0.0118 µM | TGI (MCF7 breast): 11.9 µM | GI50 (HS 578T breast): 1.5 µM | TGI (HS 578T breast): 13.9 µM | GI50 (NCI/ADR-RES ovarian): 0.0146 µM | TGI (NCI/ADR-RES ovarian): 10.1 µM | GI50 (T-47D breast): 0.283 µM | TGI (T-47D breast): 8.5 µM | GI50 (BT-549 breast): 1.03 µM | TGI (BT-549 breast): 8.31 µM

Cc1cccc(N=C2NC(=O)C(CC(=O)Nc3ccccc3Cl)S2)c1 (stereo unspecified)
TGI (M19-MEL melanoma): > 100 µM | TGI (KM20L2 colon): > 100 µM | TGI (SNB-78 CNS): > 100 µM | TGI (XF 498 CNS): > 100 µM | TGI (DMS 114 small cell lung): > 100 µM | TGI (DMS 273 small cell lung): > 100 µM

CC(=O)O[C@H]1CC[C@@]2(C)C(=C/C(=N\[N+](=O)[O-])[C@H]3C4CCC([C@H](C)CCCC(C)C)[C@@]4(C)CCC32)C1 (stereo partly specified)
TGI (M19-MEL melanoma): > 100 µM | TGI (KM20L2 colon): > 100 µM | TGI (XF 498 CNS): > 100 µM | TGI (DMS 114 small cell lung): > 100 µM | TGI (DMS 273 small cell lung): > 100 µM

Cc1ccccc1NC(=O)c1cc2ccccc2cc1O
GI50 (DU-145 prostate): 4.03 µM | TGI (DU-145 prostate): > 100 µM | GI50 (MCF7 breast): 3.46 µM | TGI (MCF7 breast): 37.1 µM | GI50 (HS 578T breast): 3.12 µM | TGI (HS 578T breast): 8.38 µM | GI50 (NCI/ADR-RES ovarian): 2.85 µM | TGI (NCI/ADR-RES ovarian): 8.79 µM | GI50 (T-47D breast): 3.51 µM | TGI (T-47D breast): > 100 µM | GI50 (BT-549 breast): 3.46 µM | TGI (BT-549 breast): 8.43 µM

COc1ccc2c(c1)C=C1CSCC3=Cc4cc(OC)ccc4OC13O2
GI50 (DU-145 prostate): 0.402 µM | TGI (DU-145 prostate): > 100 µM | GI50 (MCF7 breast): 0.313 µM | TGI (MCF7 breast): > 100 µM | GI50 (HS 578T breast): 0.313 µM | TGI (HS 578T breast): > 100 µM | GI50 (NCI/ADR-RES ovarian): 0.308 µM | TGI (NCI/ADR-RES ovarian): > 100 µM | GI50 (T-47D breast): 0.418 µM | TGI (T-47D breast): > 100 µM | GI50 (BT-549 breast): 0.816 µM | TGI (BT-549 breast): > 100 µM

CC1=NN(c2ccccc2)C(=O)C1N=Nc1ccc(S(N)(=O)=O)cc1 (stereo unspecified)
TGI (DU-145 prostate): > 100 µM | TGI (MCF7 breast): > 100 µM | TGI (HS 578T breast): > 100 µM | TGI (NCI/ADR-RES ovarian): > 100 µM | TGI (T-47D breast): > 100 µM | TGI (BT-549 breast): > 100 µM

O=C1NC(c2ccccc2)N=C2Oc3ccccc3C=C12 (stereo unspecified)
TGI (DU-145 prostate): > 100 µM | TGI (MCF7 breast): > 100 µM | TGI (HS 578T breast): 7.06 µM | TGI (NCI/ADR-RES ovarian): > 31.3 µM | TGI (T-47D breast): > 100 µM | TGI (BT-549 breast): > 100 µM

CCCC(CCC)C(=O)OCC1(CO)C/C(=C\c2ccc(C(F)(F)F)cc2)C(=O)O1 (stereo unspecified)
GI50 (DU-145 prostate): 13.4 µM | TGI (DU-145 prostate): 27.8 µM | GI50 (MCF7 breast): 17.4 µM | TGI (MCF7 breast): 33.9 µM | GI50 (HS 578T breast): 12.1 µM | TGI (HS 578T breast): 30 µM | GI50 (NCI/ADR-RES ovarian): 15.3 µM | TGI (NCI/ADR-RES ovarian): 32 µM | GI50 (T-47D breast): 14.7 µM | TGI (T-47D breast): 29.4 µM | GI50 (BT-549 breast): 7.04 µM | TGI (BT-549 breast): 21 µM

O=C(O)c1cc(=O)c2cc(C(=O)c3cccs3)c(Cl)c(Cl)c2o1
TGI (KM20L2 colon): > 100 µM | TGI (SNB-78 CNS): > 100 µM

Nc1ccc(C2=Nc3ccccc3SC(c3ccccc3O)C2)cc1 (stereo unspecified)
TGI (M19-MEL melanoma): > 100 µM | TGI (KM20L2 colon): > 100 µM | TGI (XF 498 CNS): 78.5 µM | TGI (HOP-18 NSCLC): > 100 µM | TGI (DMS 114 small cell lung): 49.4 µM | TGI (DMS 273 small cell lung): > 100 µM

NNC(=S)N/N=C(/C(=O)Nc1ccc([N+](=O)[O-])cc1)c1nc2ccc([N+](=O)[O-])cc2[nH]c1=O
TGI (M19-MEL melanoma): > 100 µM | TGI (SNB-78 CNS): > 100 µM | TGI (XF 498 CNS): > 100 µM | TGI (HOP-18 NSCLC): > 100 µM | TGI (DMS 114 small cell lung): > 100 µM

CNc1ncc2cc(Oc3ccc(F)cc3F)c(=O)n(C)c2n1
GI50 (DU-145 prostate): > 25 µM | TGI (DU-145 prostate): > 25 µM | GI50 (MCF7 breast): > 25 µM | TGI (MCF7 breast): > 25 µM | GI50 (HS 578T breast): > 25 µM | TGI (HS 578T breast): > 25 µM | GI50 (NCI/ADR-RES ovarian): > 25 µM | TGI (NCI/ADR-RES ovarian): > 25 µM | GI50 (T-47D breast): > 25 µM | TGI (T-47D breast): > 25 µM | GI50 (BT-549 breast): > 25 µM | TGI (BT-549 breast): > 25 µM

NC(=O)N/N=C(\CCC(=O)N(Cc1ccccc1)Cc1ccccc1)CC(=O)c1ccc(F)cc1
TGI (M19-MEL melanoma): > 100 µM | TGI (KM20L2 colon): > 100 µM | TGI (SNB-78 CNS): > 100 µM | TGI (HOP-18 NSCLC): > 100 µM | TGI (DMS 114 small cell lung): > 100 µM

CC1=NN(C(=O)c2nn(-c3ccc(Cl)cc3)cc2O)C(=O)C1
GI50 (DU-145 prostate): 8.08 µM | TGI (DU-145 prostate): > 100 µM | GI50 (MCF7 breast): 4.65 µM | TGI (MCF7 breast): > 100 µM | GI50 (HS 578T breast): 0.34 µM | TGI (HS 578T breast): > 100 µM | GI50 (NCI/ADR-RES ovarian): 1.83 µM | TGI (NCI/ADR-RES ovarian): > 52.2 µM | GI50 (T-47D breast): 2.87 µM | TGI (T-47D breast): > 100 µM | GI50 (BT-549 breast): 0.766 µM | TGI (BT-549 breast): > 100 µM

O=C1NN=CN2C(=O)CCC12 (stereo unspecified)
TGI (M19-MEL melanoma): > 100 µM | TGI (KM20L2 colon): > 100 µM | TGI (SNB-78 CNS): > 100 µM | TGI (XF 498 CNS): > 100 µM | TGI (DMS 114 small cell lung): > 100 µM | TGI (DMS 273 small cell lung): > 100 µM
